Our source for the IC50 values is patent publication US10590075B2, “Cyanopyrrolidine derivatives as inhibitors for DUBs” (Mission Therapeutics Limited, priority 2015, dated 2020).

Some results are limits rather than exact numbers.

Cezanne 1, sequence (Q6GQQ9 whole entry): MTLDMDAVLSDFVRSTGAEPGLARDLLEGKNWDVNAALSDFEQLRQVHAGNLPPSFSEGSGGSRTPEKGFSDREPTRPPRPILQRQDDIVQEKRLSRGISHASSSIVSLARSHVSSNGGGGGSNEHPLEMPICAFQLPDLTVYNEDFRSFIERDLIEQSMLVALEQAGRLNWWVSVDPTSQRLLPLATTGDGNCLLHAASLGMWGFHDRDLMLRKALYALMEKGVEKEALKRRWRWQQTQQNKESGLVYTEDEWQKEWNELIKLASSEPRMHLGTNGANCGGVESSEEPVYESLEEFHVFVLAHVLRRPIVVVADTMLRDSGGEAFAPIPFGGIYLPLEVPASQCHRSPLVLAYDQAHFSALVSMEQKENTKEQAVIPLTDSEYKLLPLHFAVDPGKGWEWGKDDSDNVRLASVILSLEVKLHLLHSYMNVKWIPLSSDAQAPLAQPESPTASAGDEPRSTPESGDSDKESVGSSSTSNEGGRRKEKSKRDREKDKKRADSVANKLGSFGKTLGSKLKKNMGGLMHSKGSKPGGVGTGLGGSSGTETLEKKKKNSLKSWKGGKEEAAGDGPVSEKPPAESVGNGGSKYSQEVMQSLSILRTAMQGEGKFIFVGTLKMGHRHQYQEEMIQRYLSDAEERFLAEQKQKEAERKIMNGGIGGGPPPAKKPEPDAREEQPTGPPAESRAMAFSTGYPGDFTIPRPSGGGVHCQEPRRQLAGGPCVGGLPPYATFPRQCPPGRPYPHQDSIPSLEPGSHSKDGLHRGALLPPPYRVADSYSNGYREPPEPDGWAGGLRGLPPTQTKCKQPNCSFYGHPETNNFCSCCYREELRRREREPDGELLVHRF

The test concerns the target Cezanne 1 (Homo sapiens (Human), UniProt Q6GQQ9). As to the kind of experiment: Cezanne 1 biochemical IC50 assay. Conditions: FLAG-Cezanne 1 purified from HEK293T cells; fluorescence polarisation, TAMRA labelled peptide linked to ubiquitin; 30 min preincubation, 2 hr read; read-out: IC50 range. On the procedure: The Cezanne 1 construct was PCR amplified and cloned into a pFLAG-CMV-6c vector (Sigma-Aldrich) with an N-terminal FLAG tag. HEK293T cells were transfected with FLAG-Cezanne 1 using TransIT-LT1 transfection reagent (Mirus) according to the manufacturer's instructions. Cells were harvested 48 hours after transfection. Cells were washed once with PBS and scraped in lysis buffer (50 mM Tris, pH 7.5, 150 mM NaCl, 3 mM EDTA, 0.5% NP40, 10% glycerol, 5 mM beta-mercaptoethanol, protease inhibitors (complete mini, Roche) and phosphatase inhibitors (PhosSTOP mini, Roche). Lysates were incubated for 30 min on ice and centrifuged at 4000 rpm for 10 min at 4° C. Soluble supernatant was added to FLAG affinity resin (EZview Red ANTI-FLAG M2 affinity gel, Sigma-Aldrich) equilibrated in low salt buffer (20 mM Tris, pH 7.5, 150 mM NaCl, 0.5 mM EDTA, 5 mM beta-mercaptoethanol) and incubated at 4° C. for 3 hours rotating. The resin was spun at 2000 rpm for 2 min and the supernatant was removed. The resin was washed two times with low salt buffer and one time with high salt buffer (20 mM Tris, pH 7.5, 500 mM NaCl, 0.5 mM EDTA, 5 mM beta-mercaptoethanol, protease inhibitors (complete mini, Roche) and phosphatase inhibitors (PhosSTOP mini, Roche). To elute the bound Cezanne 1, elution buffer (10 mM Tris, pH 7.5, 150 mM NaCl, 0.5 mM EDTA, 10% glycerol, 0.5% NP40, 5 mM beta-mercaptoethanol, 0.15 mg/ml 3× FLAG peptide (Sigma-Aldrich)) was added to the resin and incubated at 4° C. for 2.5 hours while rotating. The resin was centrifuged at 4000 rpm for 30 seconds, and the supernatant containing purified FLAG-Cezanne 1 was removed and stored at −80° C.
Dilution plates were prepared at 21 times the final concentration (2100 μM for a final concentration of 100 μM) in 50% DMSO in a 96-well polypropylene V-bottom plate (Greiner #651201). A typical 8-point dilution series to be 100, 30, 10, 3, 1, 0.3, 0.1, […]. Reactions were performed in duplicate in black 384 well plates (small volume, Greiner 784076) in a final reaction volume of 21 μl. Either 1 μl of 50% DMSO or diluted compound was added to the plate. Cezanne 1 was diluted in reaction buffer (40 mM Tris, pH 7.5, 0.005% Tween 20, 0.5 mg/ml BSA, 5 mM—beta-mercaptoethanol) to the equivalent of 0.005 μl/well and 10 μl of diluted Cezanne 1 was added to the compound. Enzyme and compound were incubated for 30 min at room temp. Reactions were initiated by the addition of 50 nM of TAMRA labelled peptide linked to ubiquitin via an iso-peptide bond as fluorescence polarisation substrate. Reactions were read immediately after addition of substrate and following a 2 hr incubation at room temperature. Readings were performed on a Pherastar Plus (BMG Labtech). λ Excitation 540 nm; λ Emission 590 nm.
For orientation: In fluorescence polarisation assays a small probe gives low polarisation when free and higher when bound to something large.
Regarding `N#CN1CCC(F)(C(=O)Nc2ccc(Cl)c(C(F)(F)F)c2)C1` (stereo not shown) [Example 1, N-(4-chloro-3-(trifluoromethyl)phenyl)-1-cyano-3-fluoropyrrolidine-3-carboxamide], the half-inhibitory concentration (IC50) lay in the range of 1000 to 10000 nM. To `N#CN1CCC(F)(C(=O)Nc2nc(-c3ccccc3)cs2)C1` (stereo not shown) [Example 2, 1-cyano-3-fluoro-N-(4-phenylthiazol-2-yl)pyrrolidine-3-carboxamide] belongs 1000 to 10000 nM; to `N#CN1CCC(F)(C(=O)Nc2ccc3ncsc3c2)C1` (stereo not shown) [Example 3, N-(benzo[d]thiazol-6-yl)-1-cyano-3-fluoropyrrolidine-3-carboxamide], 100 to 1000 nM; to `N#CN1CCC(F)(C(=O)Nc2cnc3ccccc3c2)C1` (stereo not shown) [Example 4, 1-cyano-3-fluoro-N-(quinolin-3-yl)pyrrolidine-3-carboxamide], 1000 to 10000 nM. Under `N#CN1CCC(F)(C(=O)Nc2ccc3ncccc3c2)C1` (stereo not shown) [Example 5, 1-cyano-3-fluoro-N-(quinolin-6-yl)pyrrolidine-3-carboxamide] stands 1000 to 10000 nM; under `Cc1nc(-c2cccc(NC(=O)C3(F)CCN(C#N)C3)c2)cs1` (stereo not shown) [Example 6, 1-cyano-3-fluoro-N-(3-(2-methylthiazol-4-yl)phenyl)pyrrolidine-3-carboxamide], 1000 to 10000 nM; under `N#CN1CCC(F)(C(=O)Nc2cccc(Oc3ccccc3)c2)C1` (stereo not shown) [Example 7, 1-cyano-3-fluoro-N-(3-phenoxyphenyl)pyrrolidine-3-carboxamide], 1000 to 10000 nM. With `N#CN1CCC(F)(C(=O)Nc2ncc(-c3ccccc3)s2)C1` (stereo not shown) [Example 8, 1-cyano-3-fluoro-N-(5-phenylthiazol-2-yl) pyrrolidine-3-carboxamide], the IC50 lay within 100 to 1000 nM. Under `N#CN1CC[C@](F)(C(=O)Nc2ncc(-c3ccccc3)s2)C1` [Example 9, (R)-1-cyano-3-fluoro-N-(5-phenylthiazol-2-yl) pyrrolidine-3-carboxamide] stands 100 to 1000 nM; under `N#CN1CCC(F)(C(=O)Nc2cc(-c3ccccc3)on2)C1` (stereo not shown) [Example 10, 1-cyano-3-fluoro-N-(5-phenylisoxazol-3-yl)pyrrolidine-3-carboxamide], 100 to 1000 nM. Under `N#CN1CCC(F)(C(=O)Nc2cn(-c3ccccc3)cn2)C1` (stereo not shown) [Example 11, 1-cyano-3-fluoro-N-(1-phenyl-1H-imidazol-4-yl)pyrrolidine-3-carboxamide] stands 1000 to 10000 nM; under `N#CN1CC[C@@](F)(C(=O)Nc2cnn(-c3ccccc3)c2)C1` [Example 12, (S)-1-cyano-3-fluoro-N-(1-phenyl-1H-pyrazol-4-yl)pyrrolidine-3-carboxamide], 1000 to 10000 nM. To `N#CN1CC[C@](F)(C(=O)Nc2cnn(-c3ccccc3)c2)C1` [Example 13, (R)-1-cyano-3-fluoro-N-(1-phenyl-1H-pyrazol-4-yl)pyrrolidine-3-carboxamide] belongs less than 100 nM; to `N#Cc1ccc(-n2cnc(NC(=O)[C@@]3(F)CCN(C#N)C3)c2)cc1` [Example 14, (R)-1-cyano-N-(1-(4-cyanophenyl)-1H-imidazol-4-yl)-3-fluoropyrrolidine-3-carboxamide], 1000 to 10000 nM.

On to `N#CN1CC[C@](F)(C(=O)Nc2cnn(Cc3ccccc3)c2)C1` [Example 15, (R)—N-(1-benzyl-1H-pyrazol-4-yl)-1-cyano-3-fluoropyrrolidine-3-carboxamide], for which the IC50 was 1000 to 10000 nM. Regarding `N#CN1CCC(F)(C(=O)Nc2nc3ccc(-c4cn[nH]c4)cc3s2)C1` (stereo not shown) [Example 16, N-(6-(1H-pyrazol-4-yl)benzo[d]thiazol-2-yl)-1-cyano-3-fluoropyrrolidine-3-carboxamide], the IC50 fell in the range of 1000 to 10000 nM.

Consider `N#CN1CCC(F)(C(=O)Nc2nc3ccc(-c4ccccc4)cc3s2)C1` (stereo not shown) [Example 17, 1-cyano-3-fluoro-N-(6-phenylbenzo[d]thiazol-2-yl)pyrrolidine-3-carboxamide], for which the IC50 fell in the range of 1000 to 10000 nM.

On to `N#CN1CCC(F)(C(=O)Nc2ncc(-c3cccc4[nH]ncc34)s2)C1` (stereo not shown) [Example 18, N-(5-(1H-indazol-4-yl)thiazol-2-yl)-1-cyano-3-fluoropyrrolidine-3-carboxamide], for which the IC50 lay in the range of 100 to 1000 nM. With `N#CN1CCC(F)(C(=O)Nc2cc(-c3ccccc3)no2)C1` (stereo not shown) [Example 20, 1-cyano-3-fluoro-N-(3-phenylisoxazol-5-yl)pyrrolidine-3-carboxamide], the IC50 lay within 100 to 1000 nM. `N#CN1CC[C@](F)(C(=O)Nc2cc(-c3ccccc3)no2)C1` [Example 21, (R)-1-cyano-3-fluoro-N-(3-phenylisoxazol-5-yl)pyrrolidine-3-carboxamide]: the IC50 was 100 to 1000 nM. Under `N#CN1CCC(F)(C(=O)Nc2ncc(-c3cccc(C(N)=O)c3)s2)C1` (stereo not shown) [Example 22, N-(5-(3-carbamoylphenyl)thiazol-2-yl)-1-cyano-3-fluoropyrrolidine-3-carboxamide] stands 100 to 1000 nM; under `CNC(=O)c1cccc(-c2cnc(NC(=O)C3(F)CCN(C#N)C3)s2)c1` (stereo not shown) [Example 23, 1-cyano-3-fluoro-N-(5-(3-(methylcarbamoyl)phenyl)thiazol-2-yl)pyrrolidine-3-carboxamide], 100 to 1000 nM; under `CNC(=O)c1cccc(-c2cnc(NC(=O)[C@@]3(F)CCN(C#N)C3)s2)c1` [Example 24, (R)-1-cyano-3-fluoro-N-(5-(3-(methylcarbamoyl)phenyl)thiazol-2-yl)pyrrolidine-3-carboxamide], 100 to 1000 nM. Consider `N#CN1CCC(F)(C(=O)Nc2ncc(-c3cccc(-n4ccnc4)c3)s2)C1` (stereo not shown) [Example 25, N-(5-(3-(1H-imidazol-1-yl)phenyl)thiazol-2-yl)-1-cyano-3-fluoropyrrolidine-3-carboxamide], for which the half-inhibitory concentration (IC50) was 100 to 1000 nM. For `N#CN1CCC(F)(C(=O)Nc2cc(-c3cccc(-n4ccnc4)c3)no2)C1` (stereo not shown) [Example 26, N-(3-(3-(1H-imidazol-1-yl)phenyl)isoxazol-5-yl)-1-cyano-3-fluoropyrrolidine-3-carboxamide], the half-maximal inhibitory concentration (IC50) lay within 100 to 1000 nM.

In the case of `N#CN1CC[C@](F)(C(=O)Nc2cc(-c3cccc(-n4ccnc4)c3)no2)C1` [Example 27, (R)—N-(3-(3-(1H-imidazol-1-yl)phenyl)isoxazol-5-yl)-1-cyano-3-fluoropyrrolidine-3-carboxamide], the IC50 was in the range of 100 to 1000 nM. As for `N#CN1CCC(F)(C(=O)Nc2cn3cc(-c4ccn[nH]4)ccc3n2)C1` (stereo not shown) [Example 28, N-(6-(1H-pyrazol-5-yl)imidazo[1,2-a]pyridin-2-yl)-1-cyano-3-fluoropyrrolidine-3-carboxamide], the half-inhibitory concentration (IC50) lay within 100 to 1000 nM. Regarding `CNC(=O)c1cccc(-c2ccc3nc(NC(=O)C4(F)CCN(C#N)C4)sc3c2)c1` (stereo not shown) [Example 29, 1-cyano-3-fluoro-N-(6-(3-(methylcarbamoyl)phenyl)benzo[d]thiazol-2-yl)pyrrolidine-3-carboxamide], the IC50 was in the range of 1000 to 10000 nM.

Usually IC50 stands for the concentration that gives 50% inhibition.
